Measured values: PMC3982398 (Biochemical pharmacology, 2009)
Like-named read-outs stand apart in the source and are kept apart here.

Assays:
[1] = cited from earlier work
CYP19 = conditions: ref [27]; cited from earlier work
[2] = test system: human placental microsomes; conditions: sulfaphenazole 10 μM, lansoprazole 10 μM, troleandomycin 50 and 200 μM, quinidine 5 μM, 4-methylpyrazole 25 μM
human hepatic microsomes [3] = test system: human hepatic microsomes
[4] = test system: human placental microsomes
human hepatic microsomes [5] = assay type: in vitro ADME; conditions: ketoconazole 0.5 μM, troleandomycin 50 μM, sulfaphenazole 40 μM; for decrease in formation of M2a: lansoprazole 10 μM; for decrease in the aggregate (total) amount of metabolites formed: α-naphthoflavone 0.05 μM
[6] = compared with glyburide; ref [12], [13]; cited from earlier work

Question: For `CO[C@H]1/C=C/O[C@@]2(C)Oc3c(C)c(O)c4c(O)c(c(/C=N/N5CCN(C)CC5)c(O)c4c3C2=O)NC(=O)/C(C)=C\C=C\[C@H](C)[C@H](O)[C@@H](C)[C@@H](O)[C@@H](C)[C@H](OC(C)=O)[C@@H]1C` [rifampin], which “effect of administration on plasma levels of glyburide” value ([1]; ref [30]) is on record?
Answer: lowered plasma levels of glyburide

Question: With `O=c1cc(-c2ccccc2)oc2c1ccc1ccccc12` [α-naphthoflavone] as the molecule, how does the “inhibition of CYP19” value (CYP19) read?
Answer: inhibitor of CYP19

Question: Which “decrease in M5 formation” value ([2]; 4-hydroxyandrostenedione 10 μM, α-naphthoflavone 0.05 μM) does the source give for `C[C@]12CCC(=O)C(O)=C1CC[C@@H]1[C@@H]2CC[C@]2(C)C(=O)CC[C@@H]12` [4-hydroxyandrostenedione] here?
Answer: 87%

Question: For `C=C[C@H]1C[N@@]2CC[C@H]1C[C@@H]2[C@@H](O)c1ccnc2ccc(OC)cc12` [quinidine], which “effect on the aggregate amount of metabolites” value [2] is on record?
Answer: negligible

Question: For `COc1ccc(Cl)cc1C(=O)NCCc1ccc(S(=O)(=O)NC(=O)N[C@H]2CC[C@@H](O)CC2)cc1` [M2a, 4-cis-hydroxycyclohexyl glyburide], which “amount of metabolite formed as percent of the total metabolites” value (“amount … as percent of the total metabolites” for short) (human hepatic microsomes [3]) is on record?
Answer: 11%

Question: And the “amount … as percent of the total metabolites” value [4]?
Answer: negligible

Question: Which results are given for `Cc1c(OCC(F)(F)F)ccnc1C[S+]([O-])c1nc2ccccc2[nH]1` (stereo not drawn) [lansoprazole]?
Answer: effect on the aggregate amount of metabolites [2]: negligible; decrease in formation of M2a (human hepatic microsomes [5]): ≈ 20%

Question: For `COc1ccc(Cl)cc1C(=O)NCCc1ccc(S(=O)(=O)NC(=O)N[C@@H]2CCCC[C@H]2O)cc1` (relative stereo) [M4, 2-trans-hydroxycyclohexyl glyburide], which “amount … as percent of the total metabolites” value (human hepatic microsomes [3]) is on record?
Answer: 4%

Question: And the “amount … as percent of the total metabolites” value [4]?
Answer: 1%

Question: Which “amount … as percent of the total metabolites” value (human hepatic microsomes [3]) does the source give for `COc1ccc(Cl)cc1C(=O)NCCc1ccc(S(=O)(=O)NC(=O)N[C@H]2CCC[C@@H](O)C2)cc1` (relative stereo) [M2b, 3-cis-hydroxycyclohexyl glyburide] here?
Answer: 12%

Question: What about the “potency in lowering the concentration of glucose” value [6] of the same molecule?
Answer: as potent as glyburide

Question: And the “amount … as percent of the total metabolites” value [4]?
Answer: 1%

Question: For `COc1ccccc1Oc1c(NS(=O)(=O)c2ccc(C(C)(C)C)cc2)nc(-c2ncccn2)nc1OCCO` [bosentan], which “effect of administration on plasma levels of glyburide” value ([1]; ref [18]) is on record?
Answer: lowered plasma levels of glyburide

Question: For `Nc1ccc(S(=O)(=O)Nc2ccnn2-c2ccccc2)cc1` [sulfaphenazole], which “effect on the aggregate amount of metabolites” value [2] is on record?
Answer: negligible

Question: What about the “decrease in formation of M1” value (human hepatic microsomes [5]) of the same molecule?
Answer: approximately 40%

Question: And the “decrease in formation of M2b” value (human hepatic microsomes [5])?
Answer: approximately 40%

Question: And the “decrease in formation of M3” value (human hepatic microsomes [5])?
Answer: ≤ 20%

Question: What about the “decrease in formation of M4” value (human hepatic microsomes [5]) of the same molecule?
Answer: ≤ 20%

Question: And the “decrease in formation of M5” value (human hepatic microsomes [5])?
Answer: ≤ 20%

Question: And the “decrease in formation of M2a” value (human hepatic microsomes [5])?
Answer: approximately 40%

Question: What about the “decrease in the aggregate (total) amount of metabolites formed” value (human hepatic microsomes [5]) of the same molecule?
Answer: 28%

Question: What does the source list for `COc1ccc(Cl)cc1C(=O)NCCc1ccc(S(=O)(=O)NC(=O)N[C@H]2CC[C@H](O)CC2)cc1` [M1, 4-trans-hydroxycyclohexyl glyburide]?
Answer: potency in lowering the concentration of glucose [6]: as potent as glyburide; amount of metabolite formed as percent of the total metabolites [4]: 4%

Question: Which results are given for `CC(=O)N1CCN(c2ccc(OCC3COC(Cn4ccnc4)(c4ccc(Cl)cc4Cl)O3)cc2)CC1` (stereo not drawn) [ketoconazole]?
Answer: decrease in formation of M1 (human hepatic microsomes [5]): ≤ 20%; decrease in formation of M2b (human hepatic microsomes [5]): ≤ 20%; decrease in formation of M3 (human hepatic microsomes [5]): ≥ 50%; decrease in formation of M4 (human hepatic microsomes [5]): ≥ 50%; decrease in formation of M5 (human hepatic microsomes [5]): 93%; decrease in formation of M2a (human hepatic microsomes [5]): approximately 40%; decrease in the aggregate (total) amount of metabolites formed (human hepatic microsomes [5]): 53%

Question: Which “amount … as percent of the total metabolites” value (human hepatic microsomes [3]) does the source give for `COc1ccc(Cl)cc1C(=O)NCCc1ccc(S(=O)(=O)NC(=O)NC2CCCC(O)C2)cc1` (stereo not drawn) [M3, 3-trans-hydroxycyclohexyl glyburide] here?
Answer: 6%

Question: What about the “amount … as percent of the total metabolites” value [4] of the same molecule?
Answer: 1%
